Measured values from patent US9695149B2, “1,2,6-substituted benzimidazoles as flap modulators” (JANSSEN PHARMACEUTICA NV, priority 2013, dated 2017).
Where a name gives a salt, the structure may show the parent alone.

Tests used:
[1] = tested on: leukotriene pathway in human whole blood; test: Human whole blood assay (LTB4, A23187-stimulated); format: cell-based; details: human whole blood diluted 1:1 in RPMI, calcium ionophore A23187 7 μg/mL, 30 min
Procedure: (§1) The ability of the compounds of the present invention to treat a FLAP-mediated disease and/or disorder, or associated symptoms or complications thereof, was determined using the following procedures. Binding assay data represent the average value obtained from two different assay plates, with samples run in duplicate on each plate. Human whole blood assay data represent a single replicate on an assay plate using whole blood from at least one healthy donor.
An in vitro cellular assay was performed using human whole blood collected in heparin-containing tubes, which was used to test the ability of compounds to modulate the leukotriene pathway in human whole blood. The blood was diluted 1:1 in RPMI medium, pre-incubated for 15 min at 37° Celsius with test compounds at various concentrations, and then stimulated with calcium ionophore, A23187 (7 μg/mL), for 30 min at 37° Celsius. The samples were then centrifuged and plasma was removed. The plasma was diluted in assay buffer and LTB4 levels were measured using a commercial kit (Enzo Life Sciences). The concentration of each compound that was required for half-maximal inhibition (modulation) of […] (IC50) was calculated by a 4-parameter equation using the program GraphPad Prism (GraphPad software). For analysis, data are imported into 3DX and aggregated as the average of duplicates of the calculated ratios in order to calculate Ki and IC50 values. Numbers in parentheses are the number of runs for the assay.

human FLAP = human FLAP (Homo sapiens (Human), UniProt P20292); test: FLAP binding assay (HTRF format); details: human FLAP-containing Sf-9 membranes, wild type; average of runs
Procedure: as §1
The assay below is used to test the modulatory activity of compounds against FLAP. Human and mouse FLAP-encoding DNA was amplified by polymerase chain reaction and cloned into pFastBac1 (Invitrogen) with a NH2-terminal 6-His tag for expression in Spodoptera frugiperda (Sf-9) cells. FLAP-containing membranes were prepared as was a FITC-labeled FLAP modulator (3-(3-(tert-butylthio)-1-(4-chlorobenzyl)-5-(quinolin-2-ylmethoxy)-1H-indol-2-yl)-2,2-dimethylpropanoic acid). The FLAP binding assay is performed in HTRF format (homogeneous time resolved fluorescence). […] The reaction is allowed to proceed for two hours after which the plate is read on an Envision plate reader in HTRF mode. Data are expressed as a HTRF ratio.
For human FLAP binding assays, data are analyzed with 3DX Explorer software. […] For analysis, data from multiple runs are averaged and each compound may be tested in 2 to 20 runs. Each run comprises two plates and each plate includes duplicates. Data from each plate is averaged and data are imported into 3DX. The data from multiple runs are aggregated as the average of duplicates of the calculated ratios in order to calculate Ki and IC50 values. Numbers in parentheses are the number of runs for the assay.

Chain of human FLAP (P20292 whole entry): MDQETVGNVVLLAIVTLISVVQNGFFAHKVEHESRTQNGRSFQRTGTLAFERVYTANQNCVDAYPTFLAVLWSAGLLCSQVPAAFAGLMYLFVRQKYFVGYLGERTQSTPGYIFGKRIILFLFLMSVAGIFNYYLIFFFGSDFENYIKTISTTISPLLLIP

| Structure (SMILES) | IC50 ([1]; Homo sapiens, 0.5 h) [nM] | Ki (human FLAP) [nM] | IC50 [1] [nM] |
| --- | --- | --- | --- |
| Cc1ccc(COc2ccc3nc(C4CCCC[C@H]4C(=O)O)n(Cc4cccc(C)c4)c3c2)nc1 (mixture of isomers) [Example 200, racemic trans-2-{1-(3-Methylbenzyl)-6-[(5-methylpyridin-2-yl)methoxy]-1H-benzimidazol-2-yl}cyclohexanecarboxylic acid] | 3140 | 30 | – |
| Cn1ccc(COc2ccc3nc(C4CCCC[C@H]4C(=O)O)n(Cc4cccc(N5CCCCC5)c4)c3c2)n1 (mixture of isomers) [Example 204, racemic cis-2-{6-[(1-Methyl-1H-pyrazol-3-yl)methoxy]-1-(3-piperidin-1-ylbenzyl)-1H-benzimidazol-2-yl}cyclohexanecarboxylic acid] | 240 | 31 | – |
| Cc1ccc(COc2ccc3nc(C4CCCC[C@H]4C(=O)O)n(Cc4cccc(Br)c4)c3c2)nc1 (mixture of isomers) [Example 228, racemic cis-2-{1-(3-Bromobenzyl)-6-[(5-methylpyridin-2-yl)methoxy]-1H-benzimidazol-2-yl}cyclohexanecarboxylic acid] | 4010 | 6.8 | – |
| Cn1ccc(COc2ccc3nc(C4CCCC[C@H]4C(=O)O)n(Cc4cccc(N5CCC(F)(F)CC5)c4)c3c2)n1 (mixture of isomers) [Example 203, racemic cis-2-{1-[3-(4,4-Difluoropiperidin-1-yl)benzyl]-6-[(1-methyl-1H-pyrazol-3-yl)methoxy]-1H-benzimidazol-2-yl}cyclohexanecarboxylic acid] | 730 | 18 | – |
| Cc1cnc(COc2ccc3nc(CC(C)(C)C(=O)O)n(Cc4cccc(Br)c4)c3c2)c(F)c1 [Example 191, 3-{1-(3-Bromobenzyl)-6-[(3-fluoro-5-methylpyridin-2-yl)methoxy]-1H-benzimidazol-2-yl}-2,2-dimethylpropanoic acid] | > 10000 | 70 | – |
| Cc1ccc(COc2ccc3nc(C4CCCC[C@H]4C(=O)O)n(Cc4cc(N5CCCCC5)ccc4F)c3c2)nc1 (mixture of isomers) [Example 209, racemic cis-2-{1-(2-Fluoro-5-piperidin-1-ylbenzyl)-6-[(5-methylpyridin-2-yl)methoxy]-1H-benzimidazol-2-yl}cyclohexanecarboxylic acid] | 150 | 3.8 | – |
| CCC(CC)(Cc1nc2ccc(OCc3ccn(C)n3)cc2n1Cc1cccc(N2CCCCC2)c1)C(=O)O [Example 212, 2-Ethyl-2-({6-[(1-methyl-1H-pyrazol-3-yl)methoxy]-1-(3-piperidin-1-ylbenzyl)-1H-benzimidazol-2-yl}methyl)butanoic acid] | 1080 | 90 | – |
| CCC(CC)(Cc1nc2ccc(OCc3ccc(C)cn3)cc2n1Cc1ccc(N2CCC(F)(F)C2)cc1)C(=O)O [Example 226, 2-({1-[4-(3,3-Difluoropyrrolidin-1-yl)benzyl]-6-[(5-methylpyridin-2-yl)methoxy]-1H-benzimidazol-2-yl}methyl)-2-ethylbutanoic acid] | ~3200 | 17 | – |
| Cc1ccc(COc2ccc3nc(C4CCCC[C@H]4C(=O)O)n(Cc4ccccc4C)c3c2)nc1 (mixture of isomers) [Example 206, racemic trans-2-{1-(2-Methylbenzyl)-6-[(5-methylpyridin-2-yl)methoxy]-1H-benzimidazol-2-yl}cyclohexanecarboxylic acid] | 1270 | 45 | – |
| Cn1ccc(COc2ccc3nc(C4CCCC[C@H]4C(=O)O)n(Cc4cccc(N5CC(F)(F)C5)c4)c3c2)n1 (mixture of isomers) [Example 205, racemic cis-2-{1-[3-(3,3-Difluoroazetidin-1-yl)benzyl]-6-[(1-methyl-1H-pyrazol-3-yl)methoxy]-1H-benzimidazol-2-yl}cyclohexanecarboxylic acid as the trifluoroacetic acid salt] | 1670 | 21 | – |

More lines, in order of falling Ki (human FLAP), values ahead:

| IC50 ([1]; Homo sapiens, 0.5 h) [nM] | Ki (human FLAP) [nM] | IC50 [1] [nM] | Structure (SMILES) |
| --- | --- | --- | --- |
| > 30000 | 180 | – | Cc1ccc(COc2cc(F)c3nc(CC4(C(=O)O)CCCC4)n(Cc4ccccc4Br)c3c2)nc1 [Example 231, 1-({1-(2-Bromobenzyl)-4-fluoro-6-[(5-methylpyridin-2-yl)methoxy]-1H-benzimidazol-2-yl}methyl)cyclopentanecarboxylic acid as the trifluoroacetic salt] |
| > 30000 | 73 | – | Cc1ccc(COc2cc(F)c3nc(CC4(C(=O)O)CCCC4)n(Cc4cccc(Br)c4)c3c2)nc1 [Example 230, 1-({1-(3-Bromobenzyl)-4-fluoro-6-[(5-methylpyridin-2-yl)methoxy]-1H-benzimidazol-2-yl}methyl)cyclopentanecarboxylic acid as the trifluoroacetic salt] |
| 2260 | 35 | – | Cn1ccc(COc2ccc3nc(C4CCCC[C@H]4C(=O)O)n(Cc4cc(Br)ccc4F)c3c2)n1 (mixture of isomers) [Example 233, racemic cis-2-{1-(5-Bromo-2-fluorobenzyl)-6-[(1-methyl-H-pyrazol-3-yl)methoxy]-1H-benzimidazol-2-yl}cyclohexanecarboxylic acid] |
| 840 | 35 | – | CCC(CC)(Cc1nc2ccc(OCc3ccn(C)n3)cc2n1Cc1cccc(N2CCC(F)(F)C2)c1)C(=O)O [Example 211, 2-({1-[3-(3,3-Difluoropyrrolidin-1-yl)benzyl]-6-[(1-methyl-1H-pyrazol-3-yl)methoxy]-1H-benzimidazol-2-yl}methyl)-2-ethylbutanoic acid] |
| – | 31 | 1810 | Cc1ccc(COc2ccc3nc(C4CCCC[C@H]4C(=O)O)n(Cc4ccccc4C)c3c2)nc1 (mixture of isomers) [Example 207, racemic cis-2-{1-(2-Methylbenzyl)-6-[(5-methylpyridin-2-yl)methoxy]-1H-benzimidazol-2-yl}cyclohexanecarboxylic acid] |
| – | 12 | 1680 | Cc1ccc(COc2ccc3nc(C4CCCC[C@H]4C(=O)O)n(Cc4cccc(C)c4)c3c2)nc1 (mixture of isomers) [Example 201, racemic cis-2-{1-(3-Methylbenzyl)-6-[(5-methylpyridin-2-yl)methoxy]-1H-benzimidazol-2-yl}cyclohexanecarboxylic acid] |
| 1600 | 9.1 | – | Cc1ccc(COc2ccc3nc(C4CCCC[C@H]4C(=O)O)n(Cc4cccc(N5CC(F)(F)C5)c4)c3c2)nc1 (mixture of isomers) [Example 219, racemic cis-2-{1-[3-(3,3-Difluoroazetidin-1-yl)benzyl]-6-[(5-methylpyridin-2-yl)methoxy]-1H-benzimidazol-2-yl}cyclohexanecarboxylic acid] |
| 500 | 6.6 | – | Cc1ccc(COc2ccc3nc(C4CCCC[C@H]4C(=O)O)n(Cc4cccc(N5CCC(F)(F)CC5)c4)c3c2)nc1 (mixture of isomers) [Example 221, racemic cis-2-{1-[3-(4,4-Difluoropiperidin-1-yl)benzyl]-6-[(5-methylpyridin-2-yl)methoxy]-1H-benzimidazol-2-yl}cyclohexanecarboxylic acid] |
| 580 | 5.7 | – | CCC(CC)(Cc1nc2ccc(OCc3ncc(C)cc3F)cc2n1Cc1ccc(N2CCC(C(F)(F)F)CC2)cc1)C(=O)O [Example 194, 2-Ethyl-2-[(6-[(3-fluoro-5-methylpyridin-2-yl)methoxy]-1-{4-[4-(trifluoromethyl)piperidin-1-yl]benzyl}-1H-benzimidazol-2-yl)methyl]butanoic acid] |
| 310 | 3.8 | – | Cc1ccc(COc2ccc3nc(C4CCCC[C@H]4C(=O)O)n(Cc4cccc(N5CCCC(F)(F)C5)c4)c3c2)nc1 (mixture of isomers) [Example 222, racemic cis-2-{1-[3-(3,3-Difluoropiperidin-1-yl)benzyl]-6-[(5-methylpyridin-2-yl)methoxy]-1H-benzimidazol-2-yl}cyclohexanecarboxylic acid] |
| 1650 | 2.4 | – | Cn1ccc(COc2cc(F)c3nc(C4CCCC[C@H]4C(=O)O)n(Cc4ccc(N5CCC(F)(F)C5)cc4)c3c2)n1 (mixture of isomers) [Example 236, racemic cis-2-{1-[4-(3,3-Difluoropyrrolidin-1-yl)benzyl]-4-fluoro-6-[(1-methyl-1H-pyrazol-3-yl)methoxy]-1H-benzimidazol-2-yl}cyclohexanecarboxylic acid] |
